Among the data in ChEMBL document CHEMBL3396950, “Enantioselective synthesis of dictyoceratin-A (smenospondiol) and -C, hypoxia-selective growth inhibitors from marine sponge” (Bioorg Med Chem, 2015) are inhibition values, retold here.

In the assay the test system is DU-145. Description: Antiproliferative activity against human DU145 cells assessed as growth inhibition treated after 12 hrs hypoxic condition and incubated additional 24 hrs under hypoxic condition by MTT assay. In kind it is functional, cell-based. In general terms: Formazan colour is commonly taken as a measure of viable cells.
With `C=C1CCC[C@@H]2[C@@](C)(Cc3cc(C(=O)OC)cc(O)c3O)[C@H](C)CC[C@@]12C`, the inhibition result was “Dose-dependent effect”.
For `C=C1CCC[C@H]2[C@](C)(Cc3cc(C(=O)OC)ccc3O)[C@@H](C)CC[C@]12C` the value was “Dose-dependent effect”.
On to `C=C1CCC[C@@H]2[C@@](C)(Cc3cc(C(=O)OC)ccc3O)[C@H](C)CC[C@@]12C`, for which the inhibition result was “Dose-dependent effect”.
For `C=C1CCC[C@H]2[C@](C)(Cc3cc(C(=O)OC)cc(O)c3O)[C@@H](C)CC[C@]12C` the value was “Dose-dependent effect”.
